Data as given in paper PMC4076215, “Nickel(II) Complex of Polyhydroxybenzaldehyde N4-Thiosemicarbazone Exhibits Anti-Inflammatory Activity by Inhibiting NF-κB Transactivation” (PLoS ONE, 2014).
Converted amounts (≈) assume the structure as drawn.

Legend:
ORAC antioxidant assay = assay type: physicochemical
Experimental: ORAC assay was performed based on reported procedures with slight modifications. Chemicals used such as fluorescein sodium salt, AAPH (2,2′-Azobis(2-methylpropionamidine) dihydrochloride), quercetin dehydrate and trolox ((±)-6-Hydroxy-2,5,7,8-tetramethylchromane-2-carboxylic acid) were purchased from Sigma-Aldrich. Compounds were diluted to a final concentration of 100 µg/ml, with total reaction volume of 200 µl. The assay was performed in a 96-well black microplate, with 25 µl of samples, standard (trolox), blank (solvent/PBS) or positive control (quercetin). Subsequently, 150 µl of working fluorescein solution was added to each well. The plate was incubated at 37°C for at least 5 min. Then, 25 µl of AAPH working solution was then added to the wells to make a total volume of 200 µl. […] Data were collected every 2 min for a duration of 2 h, and were analyzed by calculating the differences of area under fluorescence decay curve (AUC) of samples and blank. The values were expressed as Trolox equivalent (TE).
ROS may amplify inflammatory responses via up-regulation or activation of certain genes/transcription factors, such as NF-κB. […] Therefore, we conducted ORAC assays to investigate the antioxidant capacity of complex 5. The ORAC assay uses peroxyl radical as pro-oxidant and the antioxidant activity is quantified via area under curve (AUC). We included quercetin, a known antioxidant, as a positive control.

HeLa S3 cells = test: Cell proliferation (MTT) assay, HeLa S3; conditions: for IC50: Homo sapiens, HeLa S3, 48 h, read-out: IC50 (cell viability, MTT); for IC50 (cell viability, MTT): HeLa S3 cells, 48 h treatment
Experimental: (§1) A total number of 1.0×10^4 cells per well were seeded into a 96-well plate and incubated overnight at 37°C in 5% CO2. The next day, the cells were treated with a two-fold serial dilution of compounds. MTT assays were performed as described [27]. After 48 h, (4,5-dimethylthiazol-2-yl-2,5-diphenyltetrazoliumbromide) was added at 2 mg/ml. After 3 h of incubation at 37°C in 5% CO2, DMSO was added to dissolve the formazan crystals. The plates were then read in Chameleon multitechnology microplate reader (Hidex, Turku, Finland) at 570 nm absorbance. The ratio of the absorbance of treated cells to the absorbance of DMSO-treated control cells was determined as percentage cell viability.
(§2) To examine whether synthesized Ni(II) thiosemicarbazone ligands or Ni(II)-phosphine complexes were cytotoxic, we treated RAW264.7 (leukemic monocyte macrophage) and HeLa S3 (cervical adenocarcinoma) cells with these compounds for 48 h. The cell viability was determined with MTT assays [33].

RAW264.7 cells = test: Cell proliferation (MTT) assay, RAW264.7; conditions: for IC50: Mus musculus, RAW264.7, 48 h, read-out: IC50 (cell viability, MTT); for IC50 (cell viability, MTT): RAW264.7 cells, 48 h treatment
Experimental: as §1, §2

[1] = test system: carrageenan-induced paw edema; test: Carrageenan-induced paw edema mouse model; assay type: in vivo, C57BL/6 mice; conditions: 2.0 mg/kg i.p., 1 h after carrageenan; control 7.3±0.8 mm
Experimental: Male C57BL/6 mice at age 8–12 weeks old were from Jackson Laboratories, USA. Mice were administrated intraperitoneally (i.p.) with two different doses of complex 5 (2.5 mg/kg and 5 mg/kg). Negative control groups were i.p. injected with 200 µl of vehicle (50% v/v ethanol). A standard drug 2 mg/kg dexamethasone (Sigma) was included in the study. After 1 h, paw edema was induced by injecting 50 µl of 1% carrageenan (Sigma) through the plantar tissue at the right hind paw of each mouse. The thickness of right paw of each mouse was measured at 1, 3 and 5 h after carrageenan was administered. Four animals per group were tested (n = 4). Quantification of right hind paw thickness were analyzed for statistical significance using Student's t-test. Animals were housed in individually ventilated cages in specific pathogen free facility, Animal Experimental Unit, University of Malaya. All efforts were made to minimize animal suffering and the number of animals used. At the end of the experiment, mice were euthanized by CO2 asphyxiation. Animal work was approved by the Faculty of Medicine Animal Care and Use Committee (FOMIACUC) at University of Malaya and reported according to ARRIVE guidelines.
To test the in vivo inhibitory effect of complex 5 on inflammation, we administrated two doses of complex 5 (2.5 mg/kg and 5.0 mg/kg) into C57BL/6 wild type mice through i.p. injection. For a positive control, we performed i.p. injection of 2.0 mg/kg dexamethasone into the mice. After 1 h, paw edema in the mice was induced by injecting 1% carrageenan to the right hind paw. The paw sizes were measured at 1, 3 and 5 h after edema induction. The edema formation at the mice paw was due to inflammatory response causing the accumulation of histamine, serotonin, prostaglandin and other secreted inflammatory mediators.
Male C57BL/6 mice at age of 8-12 weeks old were non-injected or injected i.p. with 2.5 mg/kg or 5.0 mg/kg complex 5, whereas for positive controls, mice were injected i.p. with 2.0 mg/kg dexamethasone. After 1 h, acute inflammation was induced in the right hind paw of each mice by injecting 50 µl of carrageenan. The size of the paw were measured after (A) 1 h or, (B) 1, 3 and 5 h post carrageenan injection. Shown were mean ±SD (n = 4). Statistical analysis was performed with Student's t-test.

[2] = test system: NF-κB p65 nuclear translocation; test: NF-κB p65 immunofluorescence staining, LPS-stimulated RAW264.7; assay type: cell-based; conditions: RAW264.7, 25 µg/ml pre-treatment 4 h, LPS 1 h
Experimental: NF-κB Activation Kits (Thermo Scientific) were used as previously described. Cells were pretreated with compounds for 4 h before being stimulated with lipopolysaccharide (LPS) ortumour necrosis factor α (TNFα) for 1 h. Cells were then fixed and permeabilized before probing with NF-κB p65 antibody for 1 h. Staining solution (containing DyLight 488 Goat Anti-Rabbit and Hoechst dye) was then added and incubated for 1 h. The plate with stained cells was evaluated using a Cellomics ArrayScan HCS Reader (Cellomics, PA, USA). Data were captured, extracted and analyzed with ArrayScan II Data Acquisition and Data Viewer version 3.0 (Cellomics).
NF-κB acts as a central mediator of inflammatory responses and compounds that inhibit NF-κB activation are potential anti-inflammatory agents. To evaluate this, we performed immunofluorescence staining of NF-κB p65. […] In response to LPS stimulation, NF-κB p65 translocated from cytoplasm into the nucleus, implying NF-κB activation (Figure 3). […] Moreover, we observed that complex 6–8 required higher concentration (>50 µg/ml) to elicit similar inhibitory effect (data not shown).
Figure 3 Effect of N4-substituteted thiosemicarbazone complexes on LPS-induced NF-κB nuclear transloction in RAW264.7 macrophage cells. Staining of Hoechst (nucleus) and NF-κB in RAW264.7 cells. […]

| SMILES | Antioxidant capacity, Trolox equivalent (ORAC antioxidant assay) [µM TE per 100 µM] | IC50 (HeLa S3 cells) [µg/mL] | IC50 (RAW264.7 cells) [µg/mL] | Paw size [1] [mm] | Inhibition of LPS-mediated NF-κB p65 nuclear translocation [2] | IC50 (cell viability, MTT) (HeLa S3 cells) [µg/mL] | IC50 (cell viability, MTT) (RAW264.7 cells) [µg/mL] |
| --- | --- | --- | --- | --- | --- | --- | --- |
| CCNC(=S)N/N=C/c1cccc(O)c1O [ligand 4] | 7.54±1.61 | 87.2 ± 1.81 (≈ 364 µM) | 19.4 ± 1.07 (≈ 80.9 µM) | – | – | – | – |
| C[C@@H]1C[C@H]2[C@@H]3CCC4=CC(=O)C=C[C@]4(C)[C@@]3(F)[C@@H](O)C[C@]2(C)[C@@]1(O)C(=O)CO [dexamethasone, reference compound] | – | – | – | 4.6±0.4 | – | – | – |
| NC(=S)N/N=C/c1cccc(O)c1O [ligand 1] | 5.18±0.05 | > 100 | 22.8 ± 1.67 (≈ 108 µM) | – | did not affect NF-κB translocation | – | – |
| CNC(=S)N/N=C/c1cccc(O)c1O [ligand 2] | 8.23±0.43 | > 100 | 27.8 ± 0.96 (≈ 124 µM) | – | – | – | – |
| O=c1c(O)c(-c2ccc(O)c(O)c2)oc2cc(O)cc(O)c12 [Quercetin, quercetin dehydrate, reference compound] | 24.41±0.35 | – | – | – | – | – | – |
| CNC(=S)NN=Cc1cccc(O)c1[O-].[Cl-].[Ni+2].c1ccc(P(c2ccccc2)c2ccccc2)cc1 [complex 6, (6-Hydroxy-2-{[2-(N-methylcarbamothiolyl)hydrazin-1-ylidene-[kappa]2N1,S]methyl}phenolato-[kappa]O1)(triphenylphosphane-[kappa]P)nickel(II) chloride] | 15.65±0.89 | – | – | – | – | 77.55 ± 1.56 | 37.73 ± 3.62 |
| Oc1cccc(/C=N/NC(=S)Nc2ccccc2)c1O [ligand 3] | 9.71±0.77 | > 100 | 31.5 ± 1.82 (≈ 110 µM) | – | – | – | – |
| CCNC1=N[N+]2=Cc3cccc(O)c3[O][Ni-2]2([P+](c2ccccc2)(c2ccccc2)c2ccccc2)[S]1 (stereo not drawn) [complex 8] | 13.34±1.49 | – | – | – | – | >100 | 56.31 ± 3.86 |
| Oc1cccc2c1[O][Ni-2]1([P+](c3ccccc3)(c3ccccc3)c3ccccc3)[S]C(Nc3ccccc3)=N[N+]1=C2 (stereo not drawn) [complex 7] | 9.37±1.14 | – | – | – | – | >100 | 42.44 ± 4.17 |
